Source: PMC4210175 (Journal of Chemical Information and Modeling, 2014)

Target: T1, Mycobacterium thermoresistibile MycP1 (Mycolicibacterium thermoresistibile, UniProt G7CDQ2)
T1 sequence (G7CDQ2 19-443): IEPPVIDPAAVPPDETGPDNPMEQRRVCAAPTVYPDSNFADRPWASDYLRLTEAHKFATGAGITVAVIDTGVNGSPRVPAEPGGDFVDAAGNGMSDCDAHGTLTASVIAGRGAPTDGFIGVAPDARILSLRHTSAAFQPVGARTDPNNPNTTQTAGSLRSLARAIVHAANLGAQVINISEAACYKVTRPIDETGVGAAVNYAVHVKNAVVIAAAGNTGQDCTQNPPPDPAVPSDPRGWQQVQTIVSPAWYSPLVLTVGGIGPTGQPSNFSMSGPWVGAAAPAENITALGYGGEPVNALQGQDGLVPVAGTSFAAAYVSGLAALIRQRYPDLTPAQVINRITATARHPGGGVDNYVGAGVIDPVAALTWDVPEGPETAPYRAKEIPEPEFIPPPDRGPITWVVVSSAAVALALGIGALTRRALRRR
Assay: In vitro quenched fluorescent peptide assay of MycP1 inhibitors
Type: biochemical
Conditions: for inhibition at 150 µM: read-out: % inhibition at 150 μM

IC50 [µM]	inhibition at 150 µM [%]	SMILES
85.6	79.1	N=C(N)c1ccc(/C=C/c2ccc(C(=N)N)cc2O)cc1 [compound 11, Hydroxystilbamidine]
–	58	N=C(N)c1ccc(/N=N/Nc2ccc(C(=N)N)cc2)cc1 [compound 12, Diminazene]
–	80.1	CC(=O)Nc1ccc(/C=N/NC(N)=S)cc1 [compound 13, Thiacetazone]
